Data taken from US5663331A, “Cephalosporin compounds” (Il-Dong Pharm. Co., Ltd., priority 1992, dated 1997).
Converted amounts (≈) assume the structure as drawn.

Columns and labels:
Format in all cases: cell-based
[1] = system: Streptococcus faecalis ATCC 10541; test: MIC, two-fold dilution method, Streptococcus faecalis ATCC 10541; settings: 10^6 CFU per ml, 37° C., 18 to 20 hours; for MIC: Enterococcus faecalis, ATCC10541, Muller Hinton Broth, read-out: Antibacterial Activity (MIC); for Antibacterial Activity (MIC): Muller Hinton Broth
In short: (§1)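 Lowest concentration inhibiting growth is reported, read after 18 to 20 hours at 37° C. Compound was serially diluted two-fold in Mueller Hinton Broth, with each standard strain inoculated at 10^6 CFU per ml.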

[2] = system: Staphylococcus epidermidis ATCC 12228; test: MIC, two-fold dilution method, Staphylococcus epidermidis ATCC 12228; settings: 10^6 CFU per ml, 37° C., 18 to 20 hours; for MIC: ATCC12228, Muller Hinton Broth, read-out: Antibacterial Activity (MIC); for Antibacterial Activity (MIC): Muller Hinton Broth
In short: as §1

[3] = system: Staphylococcus aureus ATCC 65389; test: MIC, two-fold dilution method, Staphylococcus aureus ATCC 65389; settings: 10^6 CFU per ml, 37° C., 18 to 20 hours; for MIC: ATCC65389, Muller Hinton Broth, read-out: Antibacterial Activity (MIC); for Antibacterial Activity (MIC): Muller Hinton Broth
In short: as §1

[4] = system: Esherichia coli ATCC 25922; test: MIC, two-fold dilution method, Esherichia coli ATCC 25922; settings: Muller Hinton Broth, 10^6 CFU per ml, 37° C., 18 to 20 hours; for MIC: read-out: Antibacterial Activity (MIC)
In short: as §1

[5] = system: Klebsiella pneumoniae ATCC 10031; test: MIC, two-fold dilution method, Klebsiella pneumoniae ATCC 10031; settings: 10^6 CFU per ml, 37° C., 18 to 20 hours; for MIC: ATCC10031, Muller Hinton Broth, read-out: Antibacterial Activity (MIC); for Antibacterial Activity (MIC): Muller Hinton Broth
In short: as §1

[6] = system: Bacillus subtilis ATCC 6633; test: MIC, two-fold dilution method, Bacillus subtilis ATCC 6633; settings: 10^6 CFU per ml, 37° C., 18 to 20 hours; for MIC: ATCC6633, Muller Hinton Broth, read-out: Antibacterial Activity (MIC); for Antibacterial Activity (MIC): Muller Hinton Broth
In short: as §1

[7] = system: Pseudomonas aeurginosa NCTC 10490; test: MIC, two-fold dilution method, Pseudomonas aeurginosa NCTC 10490; settings: 10^6 CFU per ml, 37° C., 18 to 20 hours; for MIC: NCTC10490, Muller Hinton Broth, read-out: Antibacterial Activity (MIC); for Antibacterial Activity (MIC): Muller Hinton Broth
In short: as §1

SMILES | MIC [1] | MIC [2] | MIC [3] | MIC [4] | MIC [5] | MIC [6] | MIC [7] | Antibacterial Activity (MIC) [1] | Antibacterial Activity (MIC) [2] | Antibacterial Activity (MIC) [3] | Antibacterial Activity (MIC) [4] | Antibacterial Activity (MIC) [5] | Antibacterial Activity (MIC) [6] | Antibacterial Activity (MIC) [7]
CO/N=C(\C(=O)NC1C(=O)N2C(C(=O)[O-])=C(CSc3cc[n+](C)c4cc(N5CCN(C)CC5)c(F)cc34)CSC12)c1csc(N)n1 (stereo not shown) [Compound I-2, 7-[(Z)-2-(2-aminothiazol-4-yl)-2-(methoxyimino)acetamido]-3-[1-methyl-6-fluoro-7-(N-methylpiperazinyl)quinolinium-4-yl]thiomethyl-3-cephem-4-carboxylate] | 0.39 µg/mL (≈ 0.568 µM) | 0.78 µg/mL (≈ 1.14 µM) | 1.56 µg/mL (≈ 2.27 µM) | 12.5 µg/mL (≈ 18.2 µM) | 0.39 µg/mL (≈ 0.568 µM) | 0.39 µg/mL (≈ 0.568 µM) | 3.13 µg/mL (≈ 4.56 µM) | – | – | – | – | – | – | –
C=CCO/N=C(\C(=O)NC1C(=O)N2C(C(=O)[O-])=C(CSc3cc[n+](CC)c4cc(N5CCN(C)CC5)c(F)cc34)CSC12)c1csc(N)n1 (stereo not shown) [Compound I-30, 7-[(Z)-2-(2-aminothiazol-4-yl)-2-(allyloxyimino)acetamido]-3-[1-ethyl-6-fluoro-7-(N-methylpiperazinyl)quinolinium-4-yl]thiomethyl-3-cephem-4-carboxylate] | 0.39 µg/mL (≈ 0.537 µM) | 0.78 µg/mL (≈ 1.07 µM) | 1.56 µg/mL (≈ 2.15 µM) | 3.13 µg/mL (≈ 4.31 µM) | 0.78 µg/mL (≈ 1.07 µM) | 0.39 µg/mL (≈ 0.537 µM) | 6.25 µg/mL (≈ 8.6 µM) | – | – | – | – | – | – | –
CCN1CCN(c2cc3c(cc2F)c(SCC2=C(C(=O)[O-])N4C(=O)C(NC(=O)/C(=N\OC)c5csc(N)n5)C4SC2)cc[n+]3CC)CC1 (stereo not shown) [Compound I-11, 7-[(Z)-2-(2-aminothiazol-4-yl)-2-(methoxyimino)acetamido]-3-[1-ethyl-6-fluoro-7-(1-ethylpiperazinyl)quinolinium-4-yl]thiomethyl-3-cephem-4-carboxylat] | 0.05 µg/mL (≈ 0.0699 µM) | 0.2 µg/mL (≈ 0.28 µM) | 0.1 µg/mL (≈ 0.14 µM) | 1.56 µg/mL (≈ 2.18 µM) | 0.39 µg/mL (≈ 0.546 µM) | 0.1 µg/mL (≈ 0.14 µM) | 1.56 µg/mL (≈ 2.18 µM) | – | – | – | – | – | – | –
CO/N=C(\C(=O)NC1C(=O)N2C(C(=O)[O-])=C(CSc3cc[n+](C4CC4)c4cc(N5CCNCC5C)c(F)cc34)CS[C@H]12)c1csc(N)n1 (stereo partly shown) [Compound I-8, 7-[(Z)-2-(2-aminothiazol-4-yl)-2-(methoxyimino)acetamido]-3-[1-cyclopropyl-6-fluoro-7-(2-methylpiperazinyl)quinolinium-4-yl]thiomethyl-3-cephem-4-carboxylate] | – | – | – | – | – | – | – | 0.2 µg/mL | 0.2 µg/mL | 0.39 µg/mL | 0.78 µg/mL | 0.05 µg/mL | 0.2 µg/mL | 0.39 µg/mL

More lines, now with the values ahead:

MIC [1] | MIC [2] | MIC [3] | MIC [4] | MIC [5] | MIC [6] | MIC [7] | Antibacterial Activity (MIC) [1] | Antibacterial Activity (MIC) [2] | Antibacterial Activity (MIC) [3] | Antibacterial Activity (MIC) [4] | Antibacterial Activity (MIC) [5] | Antibacterial Activity (MIC) [6] | Antibacterial Activity (MIC) [7] | SMILES
– | – | – | – | – | – | – | 0.2 µg/mL | 0.2 µg/mL | 0.39 µg/mL | 1.56 µg/mL | 0.78 µg/mL | 0.05 µg/mL | 1.56 µg/mL | C#CCO/N=C(\C(=O)NC1C(=O)N2C(C(=O)[O-])=C(CSc3cc[n+](C4CC4)c4cc(N5CCNCC5C)c(F)cc34)CS[C@H]12)c1csc(N)n1 (stereo partly shown) [Compound I-44, 7-[(Z)-2-(2-aminothiazol-4-yl)-2-(propargyloxyimino)acetamido]-3-[1-cyclopropyl-6-fluoro-7-(2-methylpiperazinyl)quinolinium-4-yl]thiomethyl-3-cephem-4-carboxylate]
0.39 µg/mL (≈ 0.529 µM) | 0.78 µg/mL (≈ 1.06 µM) | 0.78 µg/mL (≈ 1.06 µM) | 3.13 µg/mL (≈ 4.25 µM) | 3.13 µg/mL (≈ 4.25 µM) | 0.2 µg/mL (≈ 0.271 µM) | 3.13 µg/mL (≈ 4.25 µM) | – | – | – | – | – | – | – | C#CCO/N=C(\C(=O)NC1C(=O)N2C(C(=O)[O-])=C(CSc3cc[n+](C4CC4)c4cc(N5CCN(C)CC5)c(F)cc34)CSC12)c1csc(N)n1 (stereo not shown) [Compound I-42, 7-[(Z)-2-(2-aminothiazol-4-yl)-2-(propargyloxyimino)acetamido]-3-[1-cyclopropyl-6-fluoro-7-(N-methylpiperazinyl)quinolinium-4-yl]thiomethyl-3-cephem-4-carboxylate]
0.78 µg/mL (≈ 1.06 µM) | 1.56 µg/mL (≈ 2.11 µM) | 1.56 µg/mL (≈ 2.11 µM) | 3.13 µg/mL (≈ 4.24 µM) | 1.56 µg/mL (≈ 2.11 µM) | 0.78 µg/mL (≈ 1.06 µM) | 6.25 µg/mL (≈ 8.46 µM) | – | – | – | – | – | – | – | C=CCO/N=C(\C(=O)NC1C(=O)N2C(C(=O)[O-])=C(CSc3cc[n+](CC=C)c4cc(N5CCN(C)CC5)c(F)cc34)CSC12)c1csc(N)n1 (stereo not shown) [Compound I-34, 7-[(Z)-2-(2-aminothiazol-4-yl)-2-(allyloxyimino)acetamido]-3-[1-allyl-6-fluoro-7-(N-methylpiperazinyl)quinolinium-4-yl]thiomethyl-3-cephem-4-carboxylate]
